Assay results reported in patent US12612380B2, “Non-lysosomal glucosylceramidase inhibitors and uses thereof” (ALECTOS THERAPEUTICS INC., priority 2019, dated 2026).
Like-named read-outs stand apart in the source and are kept apart here.

Experiments:
GBA2 [1] = target: T1, GBA2 (Homo sapiens, UniProt Q9HCG7); test: Determination of IC50 values for inhibition of GBA2 in cell lysate; assay type: biochemical; parameters: host or cells: HEK293T (lentiviral transduction, puromycin selection); used as cellular homogenate
T1 sequence (Q9HCG7 1-927): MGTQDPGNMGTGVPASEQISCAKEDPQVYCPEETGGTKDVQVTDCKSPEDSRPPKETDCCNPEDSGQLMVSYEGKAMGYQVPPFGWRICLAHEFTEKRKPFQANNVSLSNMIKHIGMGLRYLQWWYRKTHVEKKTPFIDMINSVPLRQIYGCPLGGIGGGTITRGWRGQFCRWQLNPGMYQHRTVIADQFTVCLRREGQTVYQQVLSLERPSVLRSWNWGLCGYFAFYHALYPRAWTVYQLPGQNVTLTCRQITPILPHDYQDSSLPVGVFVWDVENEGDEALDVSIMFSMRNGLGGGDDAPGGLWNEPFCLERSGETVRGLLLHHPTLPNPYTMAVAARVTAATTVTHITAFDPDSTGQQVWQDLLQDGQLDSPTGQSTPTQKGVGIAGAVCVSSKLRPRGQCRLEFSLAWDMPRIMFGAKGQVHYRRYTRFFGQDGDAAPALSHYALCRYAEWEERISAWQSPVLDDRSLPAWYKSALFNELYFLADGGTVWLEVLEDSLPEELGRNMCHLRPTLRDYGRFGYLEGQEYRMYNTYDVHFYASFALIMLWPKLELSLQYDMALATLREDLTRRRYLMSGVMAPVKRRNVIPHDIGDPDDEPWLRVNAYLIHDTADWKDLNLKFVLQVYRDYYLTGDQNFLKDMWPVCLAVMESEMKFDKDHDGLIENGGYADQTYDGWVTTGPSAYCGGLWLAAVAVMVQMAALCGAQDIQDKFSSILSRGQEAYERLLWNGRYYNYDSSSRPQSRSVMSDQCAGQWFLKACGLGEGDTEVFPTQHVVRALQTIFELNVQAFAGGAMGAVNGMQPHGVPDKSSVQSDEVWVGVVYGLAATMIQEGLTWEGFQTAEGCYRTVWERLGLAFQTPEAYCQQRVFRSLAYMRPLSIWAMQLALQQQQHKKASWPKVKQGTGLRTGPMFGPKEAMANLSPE
How it was run: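 Homogenate of HEK293T cells stably overexpressing human GBA2 (0.083 mg/mL final), pretreated with 20 μM GCase inhibitor, preincubated 5 min at 37 °C with compound, then reacted 20 min with 250 μM 4-methylumbelliferyl-β-D-glucopyranoside at pH 5.5 (citrate-phosphate, 1% C10E6). Fluorescence read at 365/450 nm after alkaline stop; IC50 from log-inhibitor curve fit.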

GBA2 [2] = target: T1, GBA2; test: Binding specificity (selectivity) for GBA2 over other enzymes; assay type: biochemical; conditions: compared to a suitable reference compound, e.g. NB-DNJ (miglustat) or AMP-DNM
From the text: In some embodiments, one or more of the compounds according to the invention may specifically bind a GBA2. In alternative embodiments, one or more of the compounds according to the invention may specifically bind the active site of a GBA2. […] In alternative embodiments, one or more of the compounds according to the invention may specifically bind the human non-lysosomal glucosylceramidase (GBA2) over the human lysosomal glucosylceramidase (GCase) and/or the human cytosolic glucosylceramidase (GBA3). In alternative embodiments, one or more of the compounds according to the invention may specifically bind the human non-lysosomal glucosylceramidase (GBA2) over the human glucosylceramide synthase (GCS). In alternative embodiments, one or more of the compounds according to the invention may specifically bind the human non-lysosomal glucosylceramidase (GBA2) over an intestinal alpha-glucosidase, where the intestinal alpha-glucosidase may be a sucrase-isomaltase or a maltase-glucoamylase.

[3] = cellular homogenate of HEK293T cells overexpressing human GBA2, 250 μM 4-methylumbelliferone-β-D glucopyranoside, pH 5.5, 37° C., GCase inhibitor present, read-out: GBA2 IC50

`C[C@@H]1[C@@H](O)[C@H](O)[C@@H](O)CN1C[C@H]1CC[C@@H](C(C)(C)C)CC1` [Example 9, (2R,3R,4R,5S)-1-(((1s,4S)-4-(tert-butyl)cyclohexyl)methyl)-2-methylpiperidine-3,4,5-triol] was tested, and the IC50 (GBA2 [1]; [3]) was < 100 nM and the “binding specificity (IC50 or Ki of other molecule / GBA2)” value (GBA2 [2]) was “enhanced binding specificity”.

`C[C@@H]1[C@@H](O)[C@H](O)[C@@H](O)CN1C[C@H]1CC[C@@H](C(F)(F)F)CC1` [Example 11, (2R,3R,4R,5S)-2-methyl-1-(((1s,4S)-4-(trifluoromethyl)cyclohexyl)methyl)piperidine-3,4,5-triol] was tested, and the IC50 (GBA2 [1]; [3]) was < 100 nM and the “binding specificity (IC50 or Ki of other molecule / GBA2)” value (GBA2 [2]) was “enhanced binding specificity”.

`C[C@@H]1[C@@H](O)[C@H](O)[C@@H](O)CN1C[C@H]1CC[C@@H](C(C)(C)F)CC1` [Example 13, (2R,3R,4R,5S)-1-(((1s,4S)-4-(2-fluoropropan-2-yl)cyclohexyl)methyl)-2-methylpiperidine-3,4,5-triol] was tested, and the IC50 (GBA2 [1]; [3]) was < 100 nM and the “binding specificity (IC50 or Ki of other molecule / GBA2)” value (GBA2 [2]) was “enhanced binding specificity”.

For `C[C@@H]1[C@@H](O)[C@H](O)[C@@H](O)CN1C[C@H]1CC[C@@H](C2CC2)CC1` [Example 20, (2R,3R,4R,5S)-1-(((1s,4S)-4-cyclopropylcyclohexyl)methyl)-2-methylpiperidine-3,4,5-triol], the IC50 (GBA2 [1]; [3]) was < 100 nM and the “binding specificity (IC50 or Ki of other molecule / GBA2)” value (GBA2 [2]) was “enhanced binding specificity”.

In the case of `C[C@@H]1[C@@H](O)[C@H](O)[C@@H](O)CN1CC1CCC2(CCC2)CC1` [Example 24, (2R,3R,4R,5S)-2-methyl-1-(spiro[3.5]nonan-7-ylmethyl)piperidine-3,4,5-triol], the IC50 (GBA2 [1]; [3]) is reported as < 100 nM and the “binding specificity (IC50 or Ki of other molecule / GBA2)” value (GBA2 [2]) is reported as “enhanced binding specificity”.

With `CC(C)c1cc(F)c(CCN2C[C@H](O)[C@@H](O)[C@H](O)[C@H]2C)c(F)c1` [Example 51, (2R,3R,4R,5S)-1-(2,6-difluoro-4-isopropylphenethyl)-2-methylpiperidine-3,4,5-triol] the IC50 (GBA2 [1]) was < 100 nM and the “binding specificity (IC50 or Ki of other molecule / GBA2)” value (GBA2 [2]) was “enhanced binding specificity”.

`CC(C)c1ccc(F)c(CCN2C[C@H](O)[C@@H](O)[C@H](O)[C@H]2C)c1F` [Example 52, (2R,3R,4R,5S)-1-(2,6-difluoro-3-isopropylphenethyl)-2-methylpiperidine-3,4,5-triol] was tested, and the IC50 (GBA2 [1]) was < 100 nM and the “binding specificity (IC50 or Ki of other molecule / GBA2)” value (GBA2 [2]) was “enhanced binding specificity”.

`C[C@@H]1[C@@H](O)[C@H](O)[C@@H](O)CN1CCc1c(F)cc(C2CC2)cc1F` [Example 53, (2R,3R,4R,5S)-1-(4-cyclopropyl-2,6-difluorophenethyl)-2-methylpiperidine-3,4,5-triol] was tested, and the IC50 (GBA2 [1]) was < 100 nM and the “binding specificity (IC50 or Ki of other molecule / GBA2)” value (GBA2 [2]) was “enhanced binding specificity”.

In the case of `C[C@@H]1[C@@H](O)[C@H](O)[C@@H](O)CN1CCc1c(F)cc(C2CCOCC2)cc1F` [Example 54, (2R,3R,4R,5S)-1-(2,6-difluoro-4-(tetrahydro-2H-pyran-4-yl)phenethyl)-2-methylpiperidine-3,4,5-triol], the IC50 (GBA2 [1]; [3]) is reported as < 100 nM and the “binding specificity (IC50 or Ki of other molecule / GBA2)” value (GBA2 [2]) is reported as “enhanced binding specificity”.

For `C[C@@H]1[C@@H](O)[C@H](O)[C@@H](O)CN1CCc1c(F)cc(C(F)(F)F)cc1F` [Example 55, (2R,3R,4R,5S)-1-(2,6-difluoro-4-(trifluoromethyl)phenethyl)-2-methylpiperidine-3,4,5-triol], the IC50 (GBA2 [1]) was 100 to 1000 nM and the “binding specificity (IC50 or Ki of other molecule / GBA2)” value (GBA2 [2]) was “enhanced binding specificity”.

For `C[C@@H]1[C@@H](O)[C@H](O)[C@@H](O)CN1CCc1c(F)cc(N2CCCC2)cc1F` [Example 56, (2R,3R,4R,5S)-1-(2,6-difluoro-4-(pyrrolidin-1-yl)phenethyl)-2-methylpiperidine-3,4,5-triol], the IC50 (GBA2 [1]; [3]) was < 100 nM and the “binding specificity (IC50 or Ki of other molecule / GBA2)” value (GBA2 [2]) was “enhanced binding specificity”.

`C[C@@H]1[C@@H](O)[C@H](O)[C@@H](O)CN1CCc1c(F)cc(N2CCCCC2)cc1F` [Example 57, (2R,3R,4R,5S)-1-(2,6-difluoro-4-(piperidin-1-yl)phenethyl)-2-methylpiperidine-3,4,5-triol] was tested, and the IC50 (GBA2 [1]; [3]) was < 100 nM and the “binding specificity (IC50 or Ki of other molecule / GBA2)” value (GBA2 [2]) was “enhanced binding specificity”.

In the case of `C[C@@H]1[C@@H](O)[C@H](O)[C@@H](O)CN1CCc1c(F)cc(N2CCOCC2)cc1F` [Example 58, (2R,3R,4R,5S)-1-(2,6-difluoro-4-morpholinophenethyl)-2-methylpiperidine-3,4,5-triol], the IC50 (GBA2 [1]; [3]) is reported as < 100 nM and the “binding specificity (IC50 or Ki of other molecule / GBA2)” value (GBA2 [2]) is reported as “enhanced binding specificity”.

For `CC(C)(C)C1CCC(CN2C[C@H](O)[C@@H](O)[C@H](O)[C@H]2CF)CC1` (stereo partly drawn) [Example 146, (2S,3R,4R,5S)-1-((4-(tert-butyl)cyclohexyl)methyl)-2-(fluoromethyl)piperidine-3,4,5-triol], the IC50 (GBA2 [1]; [3]) was < 100 nM.

With `O[C@H]1[C@H](O)[C@@H](O)CN(CCc2ccccc2)[C@@H]1CF` [Example 148, (2S,3R,4R,5S)-2-(fluoromethyl)-1-phenethylpiperidine-3,4,5-triol] the IC50 (GBA2 [1]) was 100 to 1000 nM.

Compound `O[C@H]1[C@H](O)[C@@H](O)CN(CCc2ccccc2F)[C@@H]1CF` [Example 149, (2S,3R,4R,5S)-2-(fluoromethyl)-1-(2-fluorophenethyl)piperidine-3,4,5-triol] has an IC50 (GBA2 [1]) of 100 to 1000 nM.

With `CC(C)c1cc(F)c(CCN2C[C@H](O)[C@@H](O)[C@H](O)[C@H]2CF)c(F)c1` [Example 150, (2S,3R,4R,5S)-1-(2,6-difluoro-4-isopropylphenethyl)-2-(fluoromethyl)piperidine-3,4,5-triol] the IC50 (GBA2 [1]) was < 100 nM.

With `O[C@H]1[C@H](O)[C@@H](O)CN(CCc2ccc3c(c2)OCCO3)[C@@H]1CF` [Example 153, (2S,3R,4R,5S)-1-(2-(2,3-dihydrobenzo[b][1,4]dioxin-6-yl)ethyl)-2-(fluoromethyl)piperidine-3,4,5-triol] the IC50 (GBA2 [1]) was < 100 nM.

`O[C@H]1[C@H](O)[C@@H](O)CN(CC2CCN(c3ccccc3)CC2)[C@@H]1CF` [Example 154, (2S,3R,4R,5S)-2-(fluoromethyl)-1-((1-phenylpiperidin-4-yl)methyl)piperidine-3,4,5-triol] was tested, and the IC50 (GBA2 [1]; [3]) was < 100 nM.

In the case of `O[C@H]1[C@H](O)[C@@H](O)CN(CC2CCN(c3ccc(C(F)(F)F)cc3)CC2)[C@@H]1CF` [Example 155, (2S,3R,4R,5S)-2-(fluoromethyl)-1-((1-(4-(trifluoromethyl)phenyl)piperidin-4-yl)methyl)piperidine-3,4,5-triol], the IC50 (GBA2 [1]; [3]) is reported as < 100 nM.

`O[C@H]1[C@H](O)[C@@H](O)CN(CCc2ccccc2)[C@@H]1C(F)F` [Example 156, (2S,3R,4R,5S)-2-(difluoromethyl)-1-phenethylpiperidine-3,4,5-triol] was tested, and the IC50 (GBA2 [1]; [3]) was 1000 to 25000 nM.

`C[C@H]1[C@@H](O)[C@H](O)[C@@H](O)CN1CCc1ccccc1F` [Example 157, (2S,3R,4R,5S)-1-(2-fluorophenethyl)-2-methylpiperidine-3,4,5-triol] showed an IC50 (GBA2 [1]) of 1000 to 25000 nM.

Work on `CCCCOc1cc(F)c(CCN2C[C@H](O)[C@@H](O)[C@H](O)[C@@H]2C)c(F)c1` [Example 158, (2S,3R,4R,5S)-1-(4-butoxy-2,6-difluorophenethyl)-2-methylpiperidine-3,4,5-triol] yielded an IC50 (GBA2 [1]) of 100 to 1000 nM.

Compound `O[C@H]1[C@H](O)[C@H](CF)N(CCc2ccccc2F)C[C@@H]1O` [Example 159, (2R,3R,4R,5S)-2-(fluoromethyl)-1-(2-fluorophenethyl)piperidine-3,4,5-triol] has an IC50 (GBA2 [1]) of 1000 to 25000 nM.

`CCCCOc1cc(F)c(CCN2C[C@H](O)[C@@H](O)[C@H](O)[C@@H]2CF)c(F)c1` [Example 160, (2R,3R,4R,5S)-1-(4-butoxy-2,6-difluorophenethyl)-2-(fluoromethyl)piperidine-3,4,5-triol] was tested, and the IC50 (GBA2 [1]) was 100 to 1000 nM.
